# Settings: 345.7 K; Crystal; visual observation
smiles,measurement,value
c1ccc2ccccc2c1 [naphthalene],vapor or sublimation pressure,3000 kPa
